US7579006B2, “Method of treating immune pathologies with low dose estrogen” (Oregon Health and Science University, priority 2000, dated 2009)
Values joined by “and” are separate entries in the source; they are usually repeats but may differ in a detail not shown here. Identical values can stand only once.

What was measured:
[1] = tested on: T cells from naïve BV8S2 transgenic female mice; assay: In vitro effect of 17β-estradiol on T cells from naïve BV8S2 transgenic female mice; format: cell-based
Method: Proliferation assay. Proliferation responses of splenic T cells were determined essentially as described in Example II, except that antigen was used at an optimal concentration of 50 μg/ml.
Measurement of cytokine secretion. Lymph nodes of naïve BV8S2 TCR transgenic females were suspended at 4×10^6 cells/ml in stimulation medium with antigen and with or without 2000 pg/ml of 17β-estradiol. Cell culture supernatants were recovered at 72 hours and frozen at −70 C until used. Measurement of cytokines was performed by ELISA essentially as described in Example II.
To evaluate 17β-estradiol effects on antigen specific T cells, splenocytes from naïve BV8S2 single transgenic female mice were stimulated with MBP-Ac1-11 peptide or BV8S2 protein in the presence or absence of a range of 17β-estradiol concentrations.

[2] = Serum 17β-estradiol measured by RIA in Tg mice; format: in vivo; settings: 0.36 mg pellet
Method: Androgen and estrogen detection. Mice were bled by cardiac puncture and the blood was allowed to clot at 4° C. overnight. The samples were centrifuged, and the sera collected and stored at −80° C. until hormone analysis was performed. Serum levels of estrogen were determined by radioimmunoassay (RIA) after Sephadex LH-20 column chromatography, as described in Roselli et al., Endocrine 64:139 (1996). All samples were analyzed in a single assay.
17β-estradiol treatment. For 17β-estradiol hormone therapy, 3-mm pellets containing 0.36 mg of 17β-estradiol (Innovative Research of America, Sarasota, Fla.), expected to provide physiological equivalence of the estrus cycle (150-200 pg/ml in serum) over 60 days, were implanted s.c. on the animal's back 7 days before induction of EAE. […] The 17β-estradiol pellets provide continuous controlled release of a constant level of hormone over a period of 60 days. Serum concentrations of 17β-estradiol were evaluated in representative mice from each group. Sham treated mice had variable levels of 17β-estradiol that reflected both estrus and diestrus mice (ranging from about 20 to 200 pg/ml, on average about 50 pg/ml). […] E2-treated intact mice were also variable (about 200-400 pg/ml), reflecting the combination of native estrus/diestrus levels plus the exogenous estradiol from the pellet, whereas the E2-treated OVX mice were somewhat lower (about 150-200 pg/ml).

IFN-γ KO mice = assay: EAE induced with MOG 35-55 in IFN-γ KO mice (clinical, histopathology); format: in vivo; settings: 2.5 mg pellet
Method: Estrogen treatment. Sixty-day release pellets containing 2.5 mg of 17β-estradiol (E2) or vehicle were implanted subcutaneously (s.c) in the scapular region behind the neck using a 12-gauge trochar as described by the manufacturer (Innovative Research of America, Sarasota, Fla.). The mice were implanted one week prior to immunization with MOG 35-55. The concentration of E2 expected in the serum is between 1,500-2,000 pg/ml, which is approximately 5 times less than the levels found during pregnancy.
Induction of EAE. C57BL/6 and cytokine deficient mice were inoculated s.c in the flanks with 0.2 ml of an emulsion containing 200 μg of MOG 35-55 in saline and an equal volume of complete Freund's Adjuvant (CFA) containing 400 μg of Mycobacterium tuberculosis H37RA (Difco Laboratories, Detroit, Mich.). Disease induction required i.v. administration of pertussis toxin on the day of immunization (25 ng/mouse) and 2 days later (67 ng/mouse). The mice were assessed daily for clinical signs of EAE according to the 7 point scale described in Example I.
Histopathology. Histopathologic assessment of spinal column section was performed essentially as described in Example I, except that sections were stained with either luxol fast blue-periodic acid schiff-hematoxylin or silver nitrate prior to analysis.
Statistical analysis. Significant differences in incidence and mortality between untreated and E2 treated mice were assessed by Chi-square analysis. Difference in onset was determined using the two-tailed Student t test. Differences in peak score and cumulative disease index (CDI) were assessed by the Mann-Whitney test. Statistical significance of the frequency of cytokine secreting cells was analyzed using Student's t test for comparisons of two means. Differences in the expression of chemokine and cytokine mRNA were also determined using the Student t test. Values of p<0.05 were considered significant.

Vβ8.2+/CD4+ T CELLS = assay: Flow cytometry of adhesion and activation antigens on LN Vβ8.2+/CD4+ T cells; format: in vivo, mice; settings: E2 treated
Method: The regulation of cell adhesion molecules is another possible mechanism by which estrogen treatment controls the migration of inflammatory cells into the CNS. The expression of cell surface adhesion and activation/memory antigens was determined by staining with fluorochrome-labeled antibodies and flow cytometry. No significant differences in the expression of VLA-4, CD44, or CD62L were detected between LN cells from E2 versus control mice with EAE (Table 18). Furthermore, no differences in activation markers (CD69, CD25, FASL, CD40L, CD28) were seen.

[3] = tested on: ovariectomized Tg female mice; assay: EAE in ovariectomized BV8S2 Tg female mice; format: in vivo
[4] = single experiments (Exp #1-#2), listed as E2
[5] = single experiments (Exp #1-#3), listed as E2
[6] = 0.36 mg pellet, OVX Tg females (Example III)

Compound: C[C@]12CC[C@@H]3c4ccc(O)cc4CC[C@H]3[C@@H]1CC[C@@H]2O [17β-estradiol]
- IL-12 or IL-10 secretion ([1]; in vitro, 2,000 pg/ml, MBP-Ac1-11 stimulated LN cells): no effects
- reduction of secreted IFN-γ protein ([1]; in vitro, 2,000 pg/ml, MBP-Ac1-11 stimulated LN cells, p<0.005): 50%
- native T cell proliferation response to MBP-Ac1-11 peptide ([1]; in vitro, 15-2,000 pg/ml): no significant effect
- native proliferation response to BV8S2 protein ([1]; in vitro, 15-2,000 pg/ml): modest enhancing effect
- IFN-γ or other cytokine secretion ([1]; in vitro, lower doses (150-400 pg/ml)): no inhibitory effects
- serum 17β-estradiol ([2]; OVX Tg mice): 100 to 200 pg/mL
- serum 17β-estradiol ([2]; OVX Tg mice, listed as E2): 150 to 200 pg/mL
- serum 17β-estradiol ([2]; intact Tg mice (pellet plus native hormone)): 150 to 400 pg/mL
- serum 17β-estradiol ([2]; intact Tg mice (pellet plus native hormone), listed as E2): 200 to 400 pg/mL
- Inflammatory foci/section (IFN-γ KO mice; IFN-γKO, spinal cord): 0.0 ± 0.0 Foci/Section
- CDI (IFN-γ KO mice; IFNγ KO): 19.3 ± 15.9
- Incidence (IFN-γ KO mice; IFNγ KO): 8/10
- Mortality (IFN-γ KO mice; IFNγ KO): 1/10
- Onset (IFN-γ KO mice; IFNγ KO): 21.8 ± 2.7
- Peak Score (IFN-γ KO mice; IFNγ KO): 4.5 ± 1.2
- CD28, % of Vβ8.2+/CD4+ T CELLS (Vβ8.2+/CD4+ T CELLS; Exp #1): 4.5%
- CD40L, % of Vβ8.2+/CD4+ T CELLS (Vβ8.2+/CD4+ T CELLS; Exp #1): 0%
- CD62lo, % of Vβ8.2+/CD4+ T CELLS (Vβ8.2+/CD4+ T CELLS; Exp #1): 47.3%
- CD25, % of Vβ8.2+/CD4+ T CELLS, mean (Vβ8.2+/CD4+ T CELLS; mean of experiments): 7.4 ± 4.3%
- CD44hi, % of Vβ8.2+/CD4+ T CELLS, mean (Vβ8.2+/CD4+ T CELLS; mean of experiments): 55.8 ± 13.8%
- CD69, % of Vβ8.2+/CD4+ T CELLS, mean (Vβ8.2+/CD4+ T CELLS; mean of experiments): 21.6 ± 5.8%
- FASL, % of Vβ8.2+/CD4+ T CELLS, mean (Vβ8.2+/CD4+ T CELLS; mean of experiments): 1.6 ± 2.1%
- VLA-4, % of Vβ8.2+/CD4+ T CELLS, mean (Vβ8.2+/CD4+ T CELLS; mean of experiments): 57.5 ± 7.4%
- CD25, % of Vβ8.2+/CD4+ T CELLS (Vβ8.2+/CD4+ T CELLS; [4]): 4.3% and 10.4%
- CD69, % of Vβ8.2+/CD4+ T CELLS (Vβ8.2+/CD4+ T CELLS; [4]): 17.5% and 25.7%
- FASL, % of Vβ8.2+/CD4+ T CELLS (Vβ8.2+/CD4+ T CELLS; [4]): 0.1% and 3.1%
- CD44hi, % of Vβ8.2+/CD4+ T CELLS (Vβ8.2+/CD4+ T CELLS; [5]): 68.8% and 41.2% and 57.3%
- VLA-4, % of Vβ8.2+/CD4+ T CELLS (Vβ8.2+/CD4+ T CELLS; [5]): 64.2% and 58.7% and 49.6%
- CDI [3, 6]: 40.0 ± 8.5
- Incidence [3, 6]: 8/11
- Onset [3, 6]: 16.5 ± 2.3
- Peak [3, 6]: 2.6 ± 0.6
- Average CDI (10-30) ([3]; Ovx Tg females): 40.0 ± 22.1^B
- Incidence ([3]; Ovx Tg females): 11/15
- Mortality ([3]; Ovx Tg females): 4/15
- Onset ([3]; Ovx Tg females): 13.6 ± 1.5
- Peak ([3]; Ovx Tg females): 3.5 ± 0.8
